In patent US12275733B2, “Substituted pyrido[3,4-b]indoles for the treatment of cartilage disorders” (Sanofi, priority 2016, dated 2025):

Test system: ATDC5 cells
Assay: Chondrogenesis activity assay in ATDC5 cells (collagen type II induction, immunofluorescence)
Assay type: cell-based, mouse
Conditions: Mus musculus; for EC50: collagen type II induction in ATDC5 cells, concentration reaching 50% of maximum induction; for Emax: maximum percent induction of collagen type II relative to internal reference compound at 10 μM, ATDC5 cells
Outline: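 Collagen type II was stained in fixed, permeabilized cells with an Alexa Fluor 488 secondary and measured by high-content fluorescence imaging. ATDC5 cells had 4 days at 37 °C in insulin-supplemented differentiation medium with compound, typically 40 nM–10 μM, 0.1% DMSO. DMSO wells and a 10 μM internal reference compound were used for normalization.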

`Cc1nccc2c1[nH]c1c(-c3ccc(OCC4(C)COC4)cc3)cc(Cl)cc12` [Example 182, 6-Chloro-1-methyl-8-[4-(3-methyl-oxetan-3-ylmethoxy)-phenyl]-9H-pyrido[3,4-b]indole] showed an EC50 of 220 nM and an Emax greater than 80%.
For `Cc1nccc2c1[nH]c1c(-c3ccc(OC4CC4)cc3)cc(Cl)cc12` [Example 183, 6-Chloro-8-(4-cyclopropoxy-phenyl)-1-methyl-9H-pyrido[3,4-b]indole], the EC50 was 2300 nM and the Emax was 50 to 80%.
Work on `COc1ccc(-c2cc(Cl)cc3c2[nH]c2c(C)nccc23)cc1OCc1ccccc1` [Example 185, 8-(3-Benzyloxy-4-methoxy-phenyl)-6-chloro-1-methyl-9H-pyrido[3,4-b]indole] yielded an EC50 greater than 10000 nM and an Emax of 20 to 50%.
For `COc1ccc(-c2cc(Cl)cc3c2[nH]c2c(C)nccc23)cc1N` [Example 186, 5-(6-Chloro-1-methyl-9H-pyrido[3,4-b]indol-8-yl)-2-methoxy-phenylamine], the EC50 was 100 nM and the Emax was greater than 80%.
`COc1ccc(-c2cc(Cl)cc3c2[nH]c2c(C)nccc23)c(C)c1C` [Example 187, 6-Chloro-8-(4-methoxy-2,3-dimethyl-phenyl)-1-methyl-9H-pyrido[3,4-b]indole] was tested, and the EC50 was 2200 nM and the Emax was greater than 80%.
With `COc1ccc(-c2cc(Br)cc3c2[nH]c2c(C)nccc23)cc1` [Example 188, 6-Bromo-8-(4-methoxy-phenyl)-1-methyl-9H-pyrido[3,4-b]indole] the EC50 was 640 nM and the Emax was greater than 80%.
For `Cc1nccc2c1[nH]c1c(-c3ccc(Cl)cc3)cc(Cl)cc12` [Example 189, 6-Chloro-8-(4-chloro-phenyl)-1-methyl-9H-pyrido[3,4-b]indole], the EC50 was 500 nM and the Emax was greater than 80%.
`Cc1nccc2c1[nH]c1c(-c3ccc(Cl)cc3Cl)cc(Cl)cc12` [Example 190, 6-Chloro-8-(2,4-dichloro-phenyl)-1-methyl-9H-pyrido[3,4-b]indole] gave an EC50 of 720 nM and an Emax greater than 80%.
`COc1ccc(-c2cc(Cl)cc3c2[nH]c2cnccc23)cc1` [Example 191, 6-Chloro-8-(4-methoxy-phenyl)-9H-pyrido[3,4-b]indole] gave an EC50 of 550 nM and an Emax greater than 80%.
In the case of `CCOc1ccc(-c2cc(Cl)cc3c2[nH]c2c(C)nccc23)cc1` [Example 192, 6-Chloro-8-(4-ethoxy-phenyl)-1-methyl-9H-pyrido[3,4-b]indole], the EC50 is reported as 640 nM and the Emax is reported as greater than 80%.
Work on `COc1ccc(-c2cc(Cl)cc3c2[nH]c2c(C)nccc23)c(OC)c1` [Example 193, 6-Chloro-8-(2,4-dimethoxy-phenyl)-1-methyl-9H-pyrido[3,4-b]indole] yielded an EC50 greater than 10000 nM and an Emax of 20 to 50%.
With `Cc1nccc2c1[nH]c1c(-c3ccc4c(c3)OC(C)C4)cc(Cl)cc12` (stereo not shown) [Example 196, 6-Chloro-1-methyl-8-(2-methyl-2,3-dihydro-benzofuran-6-yl)-9H-pyrido[3,4-b]indole] the EC50 was 800 nM and the Emax was 50 to 80%.
With `Cc1nccc2c1[nH]c1c(-c3ccc(OC4CCOC4)cc3)cc(Cl)cc12` (stereo not shown) [Example 197, 6-Chloro-1-methyl-8-[4-(tetrahydro-furan-3-yloxy)-phenyl]-9H-pyrido[3,4-b]indole] the EC50 was 630 nM and the Emax was greater than 80%.
With `Cc1cc(-c2cc(Cl)cc3c2[nH]c2c(C)nccc23)ccc1OC1CCOC1` (stereo not shown) [Example 198, 6-Chloro-1-methyl-8-[3-methyl-4-(tetrahydrofuran-3-yloxy)-phenyl]-9H-pyrido[3,4-b]indole] the EC50 was 1800 nM and the Emax was 20 to 50%.
In the case of `COCCn1c2cnccc2c2cc(Cl)cc(-c3ccc(OC)cc3)c21` [Example 201, 6-Chloro-9-(2-methoxy-ethyl)-8-(4-methoxy-phenyl)-9H-pyrido[3,4-b]indole], the EC50 is reported as 600 nM and the Emax is reported as greater than 80%.
In the case of `Cc1nccc2c1[nH]c1c(-c3ccc(OCc4ccccn4)cc3)cc(Cl)cc12` [Example 202, 6-Chloro-1-methyl-8-[4-(pyridin-2-ylmethoxy)-phenyl]-9H-pyrido[3,4-b]indole], the EC50 is reported as 640 nM and the Emax is reported as greater than 80%.
`CCOC(=O)c1ccc2[nH]c(-c3cc(Cl)cc4c3[nH]c3c(C)nccc34)cc2c1` [Example 203, 2-(6-Chloro-1-methyl-9H-pyrido[3,4-b]indol-8-yl)-1H-indole-5-carboxylic acid ethyl ester] was tested, and the EC50 was greater than 10000 nM and the Emax was less than 20%.
`Cc1nccc2c1[nH]c1c(-c3ccc(CC(=O)N4CCC(N5CCCC5)CC4)cc3)cc(Cl)cc12` [Example 204, 2-[4-(6-Chloro-1-methyl-9H-pyrido[3,4-b]indol-8-yl)-phenyl]-1-(4-pyrrolidin-1-yl-piperidin-1-yl)-ethanone] was tested, and the EC50 was 190 nM and the Emax was 50 to 80%.
In the case of `Cc1nccc2c1[nH]c1c(-c3ccc(Oc4ccccc4)cc3)cc(Cl)cc12` [Example 205, 6-Chloro-1-methyl-8-(4-phenoxy-phenyl)-9H-pyrido[3,4-b]indole], the EC50 is reported as 3300 nM and the Emax is reported as greater than 80%.
In the case of `CCn1c2c(-c3cnn(Cc4ccccc4)c3)cc(Cl)cc2c2ccnc(C)c21` [Example 207, 8-(1-Benzyl-1H-pyrazol-4-yl)-6-chloro-9-ethyl-1-methyl-9H-pyrido[3,4-b]indole], the EC50 is reported as 1600 nM and the Emax is reported as greater than 80%.
Work on `CCn1c2c(-c3cnn(Cc4ccccc4)c3)cc(Br)cc2c2ccnc(C)c21` [Example 208, 8-(1-Benzyl-1H-pyrazol-4-yl)-6-bromo-9-ethyl-1-methyl-9H-pyrido[3,4-b]indole] yielded an EC50 of 1900 nM and an Emax greater than 80%.
With `CCc1nc(C)cc2c3cc(Br)cc(-c4cnn(C)c4)c3n(CC)c12` [Example 210, 6-Bromo-1,9-diethyl-3-methyl-8-(1-methyl-1H-pyrazol-4-yl)-9H-pyrido[3,4-b]indole] the EC50 was greater than 3300 nM and the Emax was less than 20%.
For `CCc1cc2c([nH]c3c(-c4ccc(OC)cc4)cc(Br)cc32)c(C)n1` [Example 211, 6-Bromo-3-ethyl-8-(4-methoxy-phenyl)-1-methyl-9H-pyrido[3,4-b]indole], the EC50 was greater than 3300 nM and the Emax was less than 20%.
`Cc1nccc2c1[nH]c1c(-c3ccnc(N)c3)cc(Cl)cc12` [Example 215, 4-(6-Chloro-1-methyl-9H-pyrido[3,4-b]indol-8-yl)-pyridin-2-ylamine] showed an EC50 of 230 nM and an Emax greater than 80%.
With `CCn1c2c(-c3ccnc(N4CCN(C)CC4)c3)cc(Cl)cc2c2ccnc(C)c21` [Example 219, 6-Chloro-9-ethyl-1-methyl-8-[2-(4-methyl-piperazin-1-yl)-pyridin-4-yl]-9H-pyrido[3,4-b]indole] the EC50 was greater than 3300 nM and the Emax was less than 20%.
In the case of `CCn1c2c(-c3cccc(C(N)=O)c3)cc(Cl)cc2c2ccnc(C)c21` [Example 220, 3-(6-Chloro-9-ethyl-1-methyl-9H-pyrido[3,4-b]indol-8-yl)-benzamide], the EC50 is reported as greater than 10000 nM and the Emax is reported as 20 to 50%.
Compound `COc1cc(-c2cc(Cl)cc3c2[nH]c2c(C)nccc23)ccc1OCc1ccccn1` [Example 221, 6-Chloro-8-[3-methoxy-4-(pyridin-2-ylmethoxy)-phenyl]-1-methyl-9H-pyrido[3,4-b]indole] has an EC50 greater than 3300 nM and an Emax of 20 to 50%.
`COc1cc(-c2cc(Cl)cc3c2[nH]c2c(C)nccc23)ccc1OCc1ccccc1` [Example 222, 8-(4-Benzyloxy-3-methoxy-phenyl)-6-chloro-1-methyl-9H-pyrido[3,4-b]indole] showed an EC50 greater than 10000 nM and an Emax of less than 20%.
`Cc1nccc2c1[nH]c1c(-c3ccc(CN4CCOCC4)cc3)cc(Cl)cc12` [Example 224, 6-Chloro-1-methyl-8-(4-morpholin-4-ylmethyl-phenyl)-9H-pyrido[3,4-b]indole] gave an EC50 of 310 nM and an Emax greater than 80%.
With `Cc1nccc2c1[nH]c1c(-c3ccc(OC4CCCC4)cc3)cc(Cl)cc12` [Example 225, 6-Chloro-8-(4-cyclopentyloxy-phenyl)-1-methyl-9H-pyrido[3,4-b]indole] the EC50 was 1700 nM and the Emax was greater than 80%.
Compound `Cc1nccc2c1[nH]c1c(-c3ccc(OCc4cccc(F)n4)cc3)cc(Cl)cc12` [Example 226, 6-Chloro-8-[4-(6-fluoro-pyridin-2-ylmethoxy)-phenyl]-1-methyl-9H-pyrido[3,4-b]indole] has an EC50 of 190 nM and an Emax of 50 to 80%.
Work on `Cc1nccc2c1[nH]c1c(-c3ccnn3C)cc(Cl)cc12` [Example 227, 6-Chloro-1-methyl-8-(2-methyl-2H-pyrazol-3-yl)-9H-pyrido[3,4-b]indole] yielded an EC50 of 330 nM and an Emax greater than 80%.
In the case of `Cc1nccc2c1[nH]c1c(-c3ccc(OCC(O)CN4CCCCC4)cc3)cc(Cl)cc12` (stereo not shown) [Example 229, 1-[4-(6-Chloro-1-methyl-9H-pyrido[3,4-b]indol-8-yl)-phenoxy]-3-piperidin-1-yl-propan-2-ol], the EC50 is reported as 280 nM and the Emax is reported as 50 to 80%.
With `Cc1nccc2c1[nH]c1c(-c3ccc(OCCc4ccccc4)cc3)cc(Cl)cc12` [Example 231, 6-Chloro-1-methyl-8-(4-phenethyloxy-phenyl)-9H-pyrido[3,4-b]indole] the EC50 was greater than 10000 nM and the Emax was 20 to 50%.
`Cc1nccc2c1[nH]c1c(-c3ccc4[nH]ncc4c3)cc(Cl)cc12` [Example 232, 6-Chloro-8-(1H-indazol-5-yl)-1-methyl-9H-pyrido[3,4-b]indole] showed an EC50 of 330 nM and an Emax greater than 80%.
`CCn1c2c(-c3ccn(CCn4cccn4)n3)cc(Cl)cc2c2ccnc(C)c21` [Example 233, 6-Chloro-9-ethyl-1-methyl-8-[1-(2-pyrazol-1-yl-ethyl)-1H-pyrazol-3-yl]-9H-pyrido[3,4-b]indole] gave an EC50 greater than 10000 nM and an Emax of 20 to 50%.
Compound `CCn1c2c(-c3cc[nH]n3)cc(Cl)cc2c2ccnc(C)c21` [Example 234, 6-Chloro-9-ethyl-1-methyl-8-(1H-pyrazol-3-yl)-9H-pyrido[3,4-b]indole] has an EC50 of 5800 nM and an Emax of 50 to 80%.
`Cc1nccc2c1[nH]c1c(-c3cnc(-n4cccn4)nc3)cc(Cl)cc12` [Example 237, 6-Chloro-1-methyl-8-(2-pyrazol-1-yl-pyrimidin-5-yl)-9H-pyrido[3,4-b]indole] showed an EC50 of 500 nM and an Emax greater than 80%.
